Test results published in patent US9388147B2 (Receptos, Inc., priority 2009, dated 2016).

Columns and labels:
S1P1 N101A = biological target: T1, S1P1 N101A (Homo sapiens, UniProt P21453, N101A); experiment: Phosphorylated-ERK1/2 In Cell Western, S1P1 N101A mutant in CHOK1 cells; type: cell-based
T1 construct: expressed in transfected cells; host or cells: CHOK1
Protocol: A. Quick-change mutagenesis with PfuTurbo DNA polymerase (Stratagene) was conducted using S1P1/pcDNA3.1 (Missouri S&T cDNA Resource Centre) as the template. Primers were as follows: […]
PCR conditions were 15 cycles with the following parameters: 95° C. 30 sec, 58° C. 30 sec, 68° C. for 60 sec. All constructs were sequence verified.
(§1) CHOK1 cells were transfected using Fugene (Roche). Stably expressing mixed pools were selected with 2 mg/ml G418. Expression of functional S1P1/EDG1 receptor was confirmed by cell surface FACS with a S1P1 antibody (R&D Systems, clone 218713). Stable pools were seeded at 40,000 cells/well in a clear bottom 96-well tray, and incubated at 37° C. in 5% CO2 for 18 hrs. Cells were serum-starved in FreeStyle 293 medium (Invitrogen) for 4-6 h, then incubated for 5 min with a dose response of compound, in duplicate. Cells were fixed with 4% paraformaldehyde for 20 min, permeabilized with 0.1% Triton X-100 in PBS (4×5 min washes) and blocked for 1 h in Odyssey Blocking Buffer (LI-COR). All incubations were at room temperature. Cells were incubated for 18 h at 4° C. in Rabbit anti-Phospho-ERK1/2 (Cell Signaling #4377) and Mouse anti-ERK1/2 (Cell Signaling #9107) both diluted 1:800 in Odyssey Blocking Buffer. Plates were washed with 0.1% Tween-20 in PBS and then incubated with Odyssey Blocking Buffer containing IRDye 680-labeled goat anti-rabbit antibody (#926-32221; diluted 1/500) and IRDye 800CW-labeled goat anti-mouse antibody (#926-32210; diluted 1/1000). Plates were washed with 0.1% Tween-20 in PBS, all liquid was removed from the wells and the plates were scanned using a LICOR Odyssey scanner. The phospho-ERK1/2 signal was normalized to the ERK1/2 signal. Data was analyzed by non-linear regression using GraphPad Prism to determine the EC50 of binding.

S1P1 W269L = biological target: T2, S1P1 W269L (Homo sapiens, UniProt P21453, W269L); experiment: Phosphorylated-ERK1/2 In Cell Western, S1P1 W269L mutant; type: cell-based
T2 construct: expressed in transfected cells; host or cells: CHOK1
T2 sequence (P21453 whole entry W269L): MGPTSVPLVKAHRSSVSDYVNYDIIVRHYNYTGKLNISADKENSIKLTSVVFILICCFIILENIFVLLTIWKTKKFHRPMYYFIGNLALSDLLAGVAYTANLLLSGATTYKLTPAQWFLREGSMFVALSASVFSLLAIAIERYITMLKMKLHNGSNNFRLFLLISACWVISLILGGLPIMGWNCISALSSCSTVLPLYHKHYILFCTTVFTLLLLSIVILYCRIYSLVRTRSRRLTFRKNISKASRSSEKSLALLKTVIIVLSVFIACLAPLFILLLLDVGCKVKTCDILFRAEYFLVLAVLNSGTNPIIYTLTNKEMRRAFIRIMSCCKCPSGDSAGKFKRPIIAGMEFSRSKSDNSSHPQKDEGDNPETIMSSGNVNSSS
Protocol: as §1, with “The phospho-ERK1/2 signal was normalized to the ERK1/2 signal.” left out, “binding. […]” for “binding.”

T1 sequence (P21453 whole entry N101A): as the sequence (P21453 whole entry W269L) above, with N101A, L269W counted along it

CC(C)Oc1ccc(-c2nc(-c3cccc4c3CC[C@@H]4N)no2)cc1C#N [Compound 50, (S)-5-(3-(1-amino-2,3-dihydro-1H-inden-4-yl)-1,2,4-oxadiazol-5-yl)-2-isopropoxy-benzonitrile]
Effect of mutation on binding of compound (in words) (S1P1 N101A; S1P1 N101A): reduces the binding
Fold change in EC50 compared to wild type S1P1 (S1P1 N101A; S1P1 variant N101A, phospho-ERK1/2): 32
Effect of mutation on binding of compound (in words) (S1P1 W269L): abolishes binding
